“Also recorded” adds a separate entry of the source. Where two headings read alike, the source gives them in different places.

These results are taken from publication PMC10635799, “Analogs of FTY720 inhibit TRPM7 but not S1PRs and exert multimodal anti-inflammatory effects” (The Journal of General Physiology, 2023).

For data set [1], the system named is HeLa cells. The data set is described as follows: LDH-release cytotoxicity assay. It is filed as cell-based. The conditions noted are these: 24 h. The procedure: WT HeLa cells were plated at a density of 10,000 cells per well into a 96-well tissue culture microplate (3610; Costar). AAL-149, VPC01091.4, or vehicle at 0.1, 1, 5, 10, and 25 μM was added to cells with media for a final volume of 100 μl and incubated for 24 h. LDH release was quantified using a CyQUANT LDH Cytotoxicity Assay (C20300; Thermo Fisher Scientific) and a FlexStation 3 plate reader using SoftMax […] (Molecular Devices).

Data set [2] concerns the target T1, mouse TRPM7 (Mus musculus, UniProt Q923J1).
T1 construct: expressed in transfected cells; host or cells: HEK 293T cells (CRL-3216; ATCC), transient transfection with jetOPTIMUS, co-transfected eGFP as a separate plasmid
The data set is described as follows: Whole-cell patch clamp of TRPM7 current (IM7) in HEK 293T cells overexpressing mouse TRPM7. Format: cell-based. The procedure:
To overexpress TRPM7, HEK 293T cells were plated at a density of 500,000 cells per well (day 0), transfected at 80–90% confluency (day 1), and were patched 24–36 h after transfection (day 2). TRPM7 overexpression was performed using WT mouse TRPM7 (2.5 µg plasmid DNA; [Desai et al., 2012]) and jetOPTIMUS DNA Transfection Reagent (101000006; Polyplus). To enhance the selection rate of TRPM7-overexpressing cells, eGFP (#22152; Addgene) was included at a 1:10 dilution (0.25 µg) and only GFP-positive cells were patched.
Whole-cell patch clamp electrophysiology was performed as described previously ([Schappe et al., 2022]). Briefly, the external solution contained (in mM) 140 Na-methanesulfonate, 5 Cs-gluconate, 2.5 CaCl2, and 10 HEPES, pH 7.4 (adjusted with NaOH), at an osmolality of 280–290 mOsm/kg. The internal pipette solution contained (in mM) 115 Cs-gluconate, 3 NaCl, 0.75 CaCl2, 10 HEPES, 10 HEDTA, 1.8 Cs4-BAPTA, and 2 Na2ATP, pH 7.3 (adjusted with CsOH), at an osmolality of 273 mOsm/kg. Intracellular free [Ca^2+] was estimated to be ∼100 nM using the online WEBMAXC standard calculator at https://somapp.ucdmc.ucdavis.edu/pharmacology/bers/maxchelator/webmaxc/webmaxcS.htm ([Bers et al., 2010]). Recordings were captured in pCLAMP 9 (Molecular Devices) using a 400-ms ramp protocol from −100 to +100 mV and a holding potential of 0 mV. Sampling was performed at 10 kHz with a 5 kHz low-pass band filter using an Axopatch 200B amplifier (Molecular Devices). All electrophysiology experiments were conducted at RT (∼23°C). […] Similarly, the minimum current for each inhibitor dose is taken as the stable minimum current observed after the drug has had time to exert an effect and after the flow-driven transient increase has subsided.
Data were analyzed using Microsoft Excel, Prism 9.5 (GraphPad Software), and Origin Pro 7.5 (OriginLab). Chemical structures were created using ChemDraw Professional 20.1.1 (PerkinElmer). Electrophysiology traces were plotted using Origin Pro 7.5, and the remaining data were plotted and statistically tested using Prism. Outliers were determined using the robust regression and outlier removal (ROUT) function within Prism. IC50 values were determined by plotting the percentage of maximum current observed as a function of applied drug concentration. A non-linear regression was fit using a standard Hill slope of −1.0 and the model: Y=100/[1+([Inhibitor]/IC50)]. Where appropriate, data are presented as individual values; otherwise the sample sizes and precision measures are indicated in the figure legends. P values of <0.05 were considered statistically significant.
For orientation: Patch clamp records ionic current or voltage across a cell membrane.

The subject of data set [3] is lymphocytes. Details: method as in Brinkmann et al., 2002; Zhu et al., 2007. Particulars: ref Brinkmann et al., 2002; Zhu et al., 2007; cited from earlier work.
For data set [4], the system named is BMDMs. The data set is described as follows: LPS-induced inflammation assay in WT and TRPM7 KO BMDMs (qRT-PCR). Particulars: 10 µM VPC4, 10 µM AAL-149, 5 µM FTY720, 30 μM NS8593. Format: cell-based, mice. The procedure: All cells were cultured at 37°C with 5% CO2. HEK 293T cells (CRL-3216; ATCC), HeLa cells (CCL-2; ATCC), RAW 264.7 macrophages (TIB-71; ATCC), and BV-2 microglial cells (ABC-TC212S; AcceGen Biotech) were cultured in DMEM (11995065; Gibco) with 10% fetal bovine serum (FBS; Avantor Seradigm Premium Grade Fetal Bovine Serum 97068-085). FBS was heat-inactivated prior to use at 56°C for 30 min. BMDMs were isolated and cultured as previously described ([Schappe et al., 2018]) and differentiated into mature macrophages over 7 d through culture in BMDM media (RPMI 1640, 10% FBS, and 20% L-929 culture supernatant; Gibco).
(§1) RAW 264.7 macrophages or BMDMs were seeded at a density of 250,000 cells per well into a 12-well tissue culture plate in 1 ml of media and left to incubate overnight. The indicated drug or vehicle control was added to each well, and the plate was agitated and left to incubate for 10 min. The cells were then treated with LPS (1 µg/ml) or an equivalent volume of PBS, agitated, and left to incubate for 3 h. Cells were washed with PBS and then RNA isolation was performed using RNeasy Plus Micro Kit (74134; Qiagen). cDNA was produced using GoScript Reverse Transcriptase (A5004; Promega) and a quantitative PCR was performed using SensiFast SYBR (98020; Bioline) and Bio-Rad CFX Connect thermocycler. Each datum represents an individual, biological replicate that is the mean of duplicate technical replicates. Fold-changes are all reported relative to untreated controls for each experiment and were calculated using the ∆∆Ct method, with β2-microglobulin used as the housekeeping gene for each sample. The experiment was performed similarly with BV-2 microglia and alveolar macrophages, except that cells were plated at a density of 100,000 cells per well into a 24-well tissue culture plate with 1 ml of media per well.
A general note: In qPCR the cycle at which signal appears reflects the starting amount.

Data set [5] deals with S1P receptors. Particulars: cited from earlier work; for Effect on S1PRs: non-phosphorylated form, ref Qin et al., 2013.
Data set [6] deals with RAW 264.7 macrophages. The data set can be described thus: LPS-induced inflammatory gene expression (qRT-PCR) in RAW 264.7 macrophages. It is filed as cell-based. Particulars: LPS 1 µg/ml for 3 h. As to the method: as §1, with “μg/ml)” for “µg/ml)”, “([…];” for “(A5004;”, “ΔΔCt” for “∆∆Ct”
Data set [7] deals with TRPM7. Particulars: cited from earlier work; for IC50: read-out: IC50 for TRPM7 inhibition.
In data set [8] the test system is small-conductance Ca^2+-activated K^+ (SK) channels. Details: method as in Diness et al., 2010. The conditions noted are these: ref Diness et al., 2010; read-out: IC50 on SK-family channels; cited from earlier work.
Where [9] appears, read: non-phosphorylated form, ref Qin et al., 2013.

T1 sequence (Q923J1 whole entry): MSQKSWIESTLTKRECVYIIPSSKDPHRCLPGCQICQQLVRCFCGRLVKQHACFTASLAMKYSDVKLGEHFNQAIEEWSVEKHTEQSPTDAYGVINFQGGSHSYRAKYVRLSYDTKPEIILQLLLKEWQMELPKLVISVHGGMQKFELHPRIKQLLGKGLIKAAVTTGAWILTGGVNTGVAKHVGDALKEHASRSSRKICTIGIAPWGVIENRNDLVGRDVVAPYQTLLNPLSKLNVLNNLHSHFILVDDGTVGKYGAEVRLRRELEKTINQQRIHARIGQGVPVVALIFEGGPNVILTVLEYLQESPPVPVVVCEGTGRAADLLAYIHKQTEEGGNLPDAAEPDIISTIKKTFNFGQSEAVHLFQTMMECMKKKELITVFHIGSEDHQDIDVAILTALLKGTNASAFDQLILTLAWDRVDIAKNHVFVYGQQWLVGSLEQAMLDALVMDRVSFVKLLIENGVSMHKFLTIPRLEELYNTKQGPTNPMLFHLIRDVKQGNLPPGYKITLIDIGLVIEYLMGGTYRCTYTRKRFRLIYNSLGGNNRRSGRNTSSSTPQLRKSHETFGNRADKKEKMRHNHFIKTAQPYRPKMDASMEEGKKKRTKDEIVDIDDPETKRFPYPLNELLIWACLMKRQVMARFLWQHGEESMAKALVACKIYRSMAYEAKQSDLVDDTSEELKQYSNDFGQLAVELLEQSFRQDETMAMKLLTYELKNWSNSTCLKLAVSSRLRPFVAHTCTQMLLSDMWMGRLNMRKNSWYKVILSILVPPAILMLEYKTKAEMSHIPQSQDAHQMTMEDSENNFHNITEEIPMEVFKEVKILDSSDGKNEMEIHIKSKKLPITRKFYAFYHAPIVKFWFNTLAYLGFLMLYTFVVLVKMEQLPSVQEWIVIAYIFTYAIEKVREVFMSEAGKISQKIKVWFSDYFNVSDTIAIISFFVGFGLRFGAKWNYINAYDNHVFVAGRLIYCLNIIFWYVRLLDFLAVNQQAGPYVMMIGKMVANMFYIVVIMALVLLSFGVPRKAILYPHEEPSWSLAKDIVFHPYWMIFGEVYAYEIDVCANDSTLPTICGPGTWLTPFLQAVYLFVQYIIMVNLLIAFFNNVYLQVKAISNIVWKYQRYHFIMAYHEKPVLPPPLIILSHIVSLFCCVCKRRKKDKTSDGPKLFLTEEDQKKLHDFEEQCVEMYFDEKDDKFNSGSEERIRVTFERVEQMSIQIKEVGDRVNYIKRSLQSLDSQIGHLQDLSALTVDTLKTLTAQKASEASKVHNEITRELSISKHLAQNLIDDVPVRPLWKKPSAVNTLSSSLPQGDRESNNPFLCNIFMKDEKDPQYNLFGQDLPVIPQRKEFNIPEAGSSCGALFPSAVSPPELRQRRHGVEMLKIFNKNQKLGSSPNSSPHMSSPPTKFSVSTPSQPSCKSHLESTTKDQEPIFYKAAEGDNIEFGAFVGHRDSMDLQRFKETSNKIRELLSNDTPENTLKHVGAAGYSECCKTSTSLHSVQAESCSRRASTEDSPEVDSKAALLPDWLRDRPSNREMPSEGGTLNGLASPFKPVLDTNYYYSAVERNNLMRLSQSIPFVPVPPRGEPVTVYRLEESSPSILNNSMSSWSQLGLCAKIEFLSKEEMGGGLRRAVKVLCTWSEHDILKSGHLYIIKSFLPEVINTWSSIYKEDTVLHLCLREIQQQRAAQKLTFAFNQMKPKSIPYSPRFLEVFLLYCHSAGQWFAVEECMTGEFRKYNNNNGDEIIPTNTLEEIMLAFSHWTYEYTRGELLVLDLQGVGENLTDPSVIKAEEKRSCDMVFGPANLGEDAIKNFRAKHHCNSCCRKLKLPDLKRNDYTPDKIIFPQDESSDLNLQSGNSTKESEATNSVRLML

For `CCCCCCCOc1ccc(CC[C@](C)(N)CO)cc1` [AAL-149, (2S)-2-amino-4-(4-heptoxyphenyl)-2-methylbutan-1-ol], in data set [1] (dosages up to 10 µM), the “Cytotoxicity (LDH release)” value was “did not result in any significant cytotoxicity”. Also, in data set [1] (each dose up to 25 µM), the “Mean cytotoxicity (LDH release)” value was under 5%. Moreover, the IC50 in data set [2] is 1080 nM. Further, in data set [3], the “Lymphopenia when administered to mice” value was “do not evoke lymphopenia”. Moreover, the “LPS-induced IL-1β expression in TRPM7 KO BMDMs” value (“LPS-induced IL-1β expression” for short) in data set [4] was “able to suppress”. Moreover, the “Activity at S1P receptors” value in data set [5] (ref Brinkmann et al., 2002, Zhu et al., 2007) is recorded as “not active”. Besides, the “LPS-stimulated IL-1β gene expression” value in data set [6] (10 µM pretreatment) is reported as “completely abrogated”.

Consider `CCCCCCCCc1ccc(CCC(N)(CO)CO)cc1` [FTY720, fingolimod], for which, in data set [2] (5 µM), the “Effect on whole-cell TRPM7 current (IM7)” value is given as “inhibited; also recorded: able to inhibit”. For the same molecule, the IC50 in data set [7] (setting [9]) was 720 nM. Besides, the “LPS-induced IL-1β expression” value in data set [4] is listed as “able to suppress”. For the same molecule, the “Effect on S1PRs” value in data set [5] is “no effect”.

For the molecule `CCCCCCCCCCCCC/C=C/[C@H](O)[C@@H](N)CO` [L-threo-sphingosine, L-threo-(2S,3S)-sphingosine, reference compound], the half-maximal inhibitory concentration (IC50) in data set [2] (peak current at +100 mV, HEK 293T overexpressing mouse TRPM7, Hill slope -1.0, read-out: IC50 for inhibition of TRPM7 current (IM7)) was 3380 nM.

For the molecule `c1ccc2c(c1)CCC[C@H]2Nc1nc2ccccc2[nH]1` [NS8593, (R)-N-(benzimidazol-2-yl)-1,2,3,4-tetrahydro-1-naphtylamine], the IC50 in data set [8] was 420 to 730 nM; in data set [7] (ref Chubanov et al., 2012) it was 1600 nM. Also, the “LPS-induced IL-1β expression” value in data set [4] is reported as “able to suppress”.

On to `CCCCCCCCCCCCC/C=C/[C@@H](O)[C@@H](N)COP(=O)(O)O` [S1P, sphingosine-1-phosphate], for which, in data set [7] (ref Qin et al., 2013), the “Effect of phosphorylated forms on IM7” value was “do not inhibit”.

`CCCCCCCCc1ccc([C@H]2CC[C@](N)(CO)C2)cc1` [VPC01091.1, ((1R,3S)-1-amino-3-(4-octylphenyl)cyclopentyl)methanol]: the “Effect on whole-cell TRPM7 current (IM7)” value in data set [2] (10 µM) is “inhibited”.

`CCCCCCCCc1ccc([C@H]2CC[C@@](N)(COP(=O)(O)O)C2)cc1` [VPC01091.2-P, ((1S,3S)-1-amino-3-(4-octylphenyl)cyclopentyl)methyl dihydrogen phosphate]: in data set [2] (10 µM), the “Effect on whole-cell TRPM7 current (IM7)” value is “negligible effect; also recorded: no effect”. Moreover, the “LPS-stimulated IL-1β gene expression” value in data set [6] (pretreatment, concentration not given) is given as “no significant inhibition”.

On to `CCCCCCCCc1ccc([C@@H]2CC[C@](N)(CO)C2)cc1` [VPC01091.3, ((1R,3R)-1-amino-3-(4-octylphenyl)cyclopentyl)methanol], for which, in data set [2] (10 µM), the “Effect on whole-cell TRPM7 current (IM7)” value is “inhibited”.

As to `C=C1CC/C=C(\C)CC[C@@H]2C([C@H](C/C=C(\C)COC(C)=O)OC(C)=O)=CO[C@H](OC(C)=O)[C@@H]12` [Waixenicin A], the “Time to suppress ITRPM7” value in data set [7] (10 μM, ref Zierler et al., 2011) is recorded as “up to 200 s”. Besides, the IC50 in data set [7] (Mg^2+-free conditions, ref Zierler et al., 2011) was 7000 nM; in data set [7] (recording conditions that limit the development of TRPM7 currents, ref Zierler et al., 2011), 16 nM.

For `CCCCCCCCCCCCC/C=C/[C@@H](O)[C@@H](N)CO` [sphingosine, D-erythro-sphingosine, reference compound], the IC50 in data set [7] (setting [9]) was 590 nM. In addition, the “Effect on S1PRs” value in data set [5] is “no effect”.

Usually IC50 stands for the concentration that inhibits the measured activity by half.
